How the values were obtained:
HIV-1 (JR-CSF) = assay: Efficacy study in HIV-1 infected humanized BLT mice: HIV-1 loads in blood (qPCR); type: in vivo; settings: 4 weeks of treatment starting 12 weeks after infection; n=8 per group
Source text: Methods: Humanized BLT mice were generated by implanting human fetal liver and thymus tissues under the kidney capsule of an immunodeficient NOD scid gamma (NSG=NOD.Cg-Prkdc^scidII12rg^tm1Wjl/SzJ) mouse, followed by an administration of autologous human fetal liver CD34+ cells (human hematopoietic stem cells). In BLT mice, T cell education occured in the human thymic tissue, resulting in complete systemic reconstitution of all major human hematopoietic lineages including T, B, monocyte/macrophage, dendritic, and natural killer cells. The extensive systemic and genital mucosal reconstitution with human lymphoid cells rendered female humanized BLT mice susceptible to both vaginal and rectal HIV infection. […]
R5 HIV (JR-CSF) was produced by 293T transfection and quantified by p24 ELISA. Humanized mice were infected with JR-CSF (200 ng of p24) and viral replication quantified weekly by qPCR for up to 16 weeks.
Methods: Thirty-two BLT mice were infected with HIV-1. 12 weeks later mice were split in 4 groups (n=8), treated with various regimen and analyzed for 6 weeks. […] Body weight, HIV-1 loads and PD-1 expression on CD8+ T cells were analyzed once weekly. […] The remaining mice (4×5=20) were sacrificed 2 weeks after treatment completion and viral RNA levels in organ reservoirs (spleen, thymic organoid, lung, spleen, lymph nodes and liver) were quantified by qPCR.

[1] = system: HIV-infected resting CD4+ T cells (rCD4); assay: Lysis of HIV-infected resting CD4+ T cells (rCD4) by CD8+ T cells and NK cells (LDH activity); type: cell-based, human; settings: 0, 1 and 10 μM, mono- or co-cultures of rCD4, CD4+, 24 and 48 h
Procedure: It was investigated whether the Debio-1143-induced reversal of HIV-1 latency, by restoring HIV-1 protein production in rCD4, would permit viral peptide exposure with MHC on infected rCD4+ T cells and allow recognition and lysis by CD8+ T cells and/or NK cells.
Method: Human CD4+ T cells, CD8+ T cells and NK cells were isolated following manufacturer's instruction (beads coated with specific antibodies) from one blood donor (500 mL). Ninety percent of CD4+ T cells were infected with HIV-1 (JR-CSF) (1 μg of p24), incubated for 4 days to allow establishment of infection, and then treated with ART for 3 days. Suppression of replication was verified by p24 ELISA in supernatants. rCD4 were then isolated following manufacturer's instruction. Infected and ART-treated rCD4 were mixed with uninfected CD4+ T cells, CD8+ T cells and NK cells a 1:1 ratio (100,000 cells) for 24 and 48 in triplicate. Mono-culture of each cell populations were used as controls. DMSO or Debio-1143 (0, 1 and 10 μM) were added to mono- or co-cultures for 24 and 48 h. Cell killing was quantified by LDH activity.

BIRC2 = molecular target: T1, BIRC2 (Homo sapiens, UniProt Q13490); assay: BIRC2 (cIAP1) degradation by Western blotting; type: cell-based
T1 construct: endogenous in cells; host or cells: 2D10, 293T and CD4+ T cells
T1 sequence (Q13490 whole entry): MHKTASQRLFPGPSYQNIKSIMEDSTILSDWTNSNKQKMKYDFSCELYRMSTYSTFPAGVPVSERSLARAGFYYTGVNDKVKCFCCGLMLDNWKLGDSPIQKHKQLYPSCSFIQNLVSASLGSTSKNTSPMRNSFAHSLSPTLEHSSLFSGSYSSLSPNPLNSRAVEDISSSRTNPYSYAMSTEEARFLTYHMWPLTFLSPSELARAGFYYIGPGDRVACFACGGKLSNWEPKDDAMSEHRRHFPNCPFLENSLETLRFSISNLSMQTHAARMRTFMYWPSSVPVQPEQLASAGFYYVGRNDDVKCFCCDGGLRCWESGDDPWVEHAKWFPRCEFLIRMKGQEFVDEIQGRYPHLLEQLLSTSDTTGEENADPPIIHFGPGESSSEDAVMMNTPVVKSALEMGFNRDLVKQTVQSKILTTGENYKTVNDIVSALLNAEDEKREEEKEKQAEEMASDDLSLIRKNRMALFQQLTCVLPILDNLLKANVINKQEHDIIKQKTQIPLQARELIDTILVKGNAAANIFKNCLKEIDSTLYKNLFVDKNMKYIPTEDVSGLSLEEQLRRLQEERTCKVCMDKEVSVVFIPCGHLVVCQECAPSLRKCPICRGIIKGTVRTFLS
Procedure: It was investigated whether Debio-1143 reverses HIV-1 latency by acting on the NF-κB pathway. Canonical and non-canonical NF-κB signaling pathways play an important role in the reactivation of latent HIV-1, implicating its regulation as an important therapeutic strategy for latency reversal.
Method: 2D10 (A) or 293T (B) and CD4+ T cells (C) cells were treated with DMSO, Debio-1143 (1 μM) and TNFα (10 ng/ml) for the indicated times and analyzed by Western blotting for BIRC2 and IkBα protein expression using antibodies specifically detecting human BIRC2, human IkBα, or human CypA, such as commercially available (e.g. from R&D Systems, Cell Signaling, Santa Cruz Biotechnology, or other sources).

[2] = system: latent HIV-1 in rCD4+ cells co-cultured with CD8+ cells; assay: HIV-1 reactivation in ex vivo co-cultures of rCD4+ and CD8+ cells from an ART-treated HIV patient (HIV RNA in supernatant); type: cell-based, human
Procedure: The efficacy of IAPa, ICI or IAPa/ICI combinations in reversing HIV-1 latency was tested in HIV-1 infected rCD4+ cells co-cultured for 48 h with CD8+ cells from the same donor.
Method: Blood from one HIV-1-infected patient under ART was collected (500 mL) and CD4+ and CD8+ cells isolated using beads coated with specific antibodies following manufacturer's instruction (MojoSort™ Human Cell Isolation Kits from Biolegend). The CD4+ T cells were re-infected with HIV-1 (JR-CSF) (1 μg of p24), incubated for 3 days to allow establishment of infection, and treated with ART ([…]) for 7 days to ensure presence of enough latent HIV CD4+ cells (rCD4+) in the culture. Upon ART removal, rCD4 were then isolated following manufacturer's instruction (EasySep™ Human Resting CD4+ T Cell Isolation Kit). The isolated rCD4 were mixed with autologous (from the same patient) uninfected CD8+ T cells at a 1:1 ratio (100,000 cells) and incubated in duplicate for 48 h with different IAPa ([…]) or ICI (10 μg/ml) in monotherapy, or the IAPa/ICI combinations. Amounts of virions released from cells were quantified at the indicated time points by quantifying HIV RNA levels (HIV RNA copies/mL) in supernatant of cell culture using one-step reverse transcriptase quantitative real-time PCR (ABI custom TaqMan Assays-by-Design) according to the manufacturer's instructions. Primers were 5-[…]-3 and 5-[…]-3, and MGB probe 5-FAM-[…]-Q-3, where FAM is 6-carboxyfluorescein.

CN[C@@H](C)C(=O)N[C@H]1CN(C(=O)CC(C)C)CC[C@H]2CC[C@@H](C(=O)NC(c3ccccc3)c3ccccc3)N2C1=O [Debio 1143, (5S,8S,10aR)-N-benzhydryl-5-((S)-2-(methylamino)propanamido)-3-(3-methylbutanoyl)-6-oxodecahydropyrrolo[1,2-a][1,5]diazocine-8-carboxamide]
HIV titers in blood (HIV-1 (JR-CSF)): increased viral titers
cell killing (LDH activity) [1]: Low cell death was observed in all mono- and co-cultures except for the rCD4:CD8+ T cells co-culture
time of BIRC2 degradation (BIRC2; 1 μM, 2D10 and 293T cells): < 15 min
BIRC2 degradation (BIRC2; CD4+ T cells): dose-dependent
latency reversal class (HIV RNA copies/ml in supernatant) ([2]; IAPa 1 μM monotherapy (0.1% DMSO, no ICI), 48 h (Table 3)): 3 (Subsequent classes were defined accordingly in steps of 500 RNA copies/ml)
latency reversal class (HIV RNA copies/ml in supernatant) ([2]; IAPa 1 μM with Control IgG1, 48 h (Table 3)): 3 (Subsequent classes were defined accordingly in steps of 500 RNA copies/ml)
latency reversal class (HIV RNA copies/ml in supernatant) ([2]; IAPa 1 μM with Control IgG2, 48 h (Table 3)): 3 (Subsequent classes were defined accordingly in steps of 500 RNA copies/ml)

Source: US20220016079A1, “COMBINATION TREATMENT OF HIV INFECTIONS” (priority 2018, published 2022)
